The results in this text go back to PubChem BioAssay (NCI).

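48-hour exposure; five concentrations; linearly interpolated endpoints. The concentration for full growth arrest is given as TGI.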

Common to all, as to experiment: NCI-60 cell line screen, 48 h
Experiment [1] concerns M14 melanoma.
For experiment [2], the system named is NCI-H522 lung.
Experiment [3] concerns UACC-62 melanoma.
Experiment [4] concerns HOP-92 NSCLC.
Experiment [5] has as its system A498 renal.
The subject of experiment [6] is IGROV1 ovarian.
Experiment [7] relates to MCF7 breast.
Experiment [8] relates to HS 578T breast.
In experiment [9] the test system is CAKI-1 renal.
Experiment [10] has as its system OVCAR-8 ovarian.
Experiment [11] has as its system COLO 205 colon.

For the molecule `COc1cc([C@@H]2c3cc4c(cc3[C@@H](Nc3ccc([N+](=O)[O-])cc3C(=O)c3ccccc3)[C@H]3COC(=O)[C@H]23)OCO4)cc(OC)c1OC`, the TGI in [1] is greater than 100 µM; in experiment [2], greater than 51 µM; in experiment [3] it was greater than 100 µM; in [4] it was greater than 100 µM; in [5], greater than 100 µM; in experiment [6], greater than 100 µM. The TGI in [7], in experiment [8], in experiment [9] and in experiment [10] was greater than 100 µM in each case.
As to `COc1cc(/C=C2\S/C(=N/Nc3nc(-c4ccc(Br)cc4)cs3)NC2=O)cc(OC)c1OC`, the TGI in experiment [11] worked out at 71.3 µM; in experiment [1], 41.8 µM; in [2] it was 30.2 µM; in experiment [3] it was 25.4 µM; in experiment [4], 18.3 µM; in [6], 37 µM. The TGI is greater than 100 µM in experiment [7], 89.5 µM in experiment [8], 46.6 µM in experiment [9] and 29.6 µM in experiment [10].
For `NC(=O)C(c1ccccc1)N1OC2C(=O)N(c3ccccc3)C(=O)C2C1c1c2ccccc2c(Cl)c2ccccc12` (stereo not drawn), the TGI in [11], in [1], in [2], in experiment [3], in [4] and in experiment [6] was greater than 100 µM in each case. Besides, the TGI in experiment [7], in experiment [8], in experiment [9] and in experiment [10] was greater than 100 µM in each case.
As for `CNC(=O)OCC1=C(COC(=O)NC)C(C)N(c2ccc(OC)cc2)C1` (stereo not drawn), the TGI in [11] is greater than 100 µM; in [1] it was greater than 100 µM; in experiment [3] it was 57.3 µM; in experiment [4], greater than 100 µM; in experiment [5], 1.74 µM; in [6], greater than 100 µM. For the same molecule, the TGI in experiment [7], in experiment [8] and in experiment [10] was greater than 100 µM each time.
For the molecule `N#CC1=C(N)N(c2ccccc2)C(c2ccco2)C1(C#N)C#N` (stereo not drawn), the TGI was found to be 39.2 µM in experiment [11]; 43.4 µM in experiment [1]; 35.2 µM in experiment [2]; 59.3 µM in experiment [3]; 49.1 µM in experiment [5]; 47.9 µM in experiment [6]. Further, the TGI in experiment [7] is 43.9 µM; in [8], greater than 100 µM; in [9], greater than 100 µM; in [10], 51.8 µM.
As to `COC(=O)[C@H]1CO[C@@H](C(C)(C)C)N1C(=O)N1C=CC(=O)C[C@@H]1C`, the TGI in experiment [11], in [2], in [3], in experiment [4], in experiment [5] and in experiment [6] was greater than 100 µM in each case. For the same molecule, the TGI in [7], in experiment [8], in experiment [9] and in [10] was greater than 100 µM throughout.
As for `O=S1(=O)NC(=NCc2c[nH]c3ccccc23)N(c2ccccc2)c2ccncc21`, the TGI was greater than 100 µM in experiment [11]; greater than 100 µM in experiment [1]; 92.7 µM in experiment [2]; greater than 100 µM in experiment [3]; greater than 100 µM in experiment [4]; greater than 100 µM in [5]. For the same molecule, the TGI in experiment [7] is greater than 100 µM; in experiment [8] it was 92.7 µM; in experiment [9], greater than 100 µM; in experiment [10], greater than 100 µM.
Take `CC[C@@]1(O)C(=O)OCc2c1cc1n(c2=O)Cc2c-1nc1ccccc1c2/C=N\NC(=O)CN`: the TGI in experiment [11] was greater than 100 µM; in [2] it was 35.5 µM; in experiment [3], 0.842 µM; in experiment [4], 21.8 µM; in experiment [5], 3.76 µM; in experiment [6] it was greater than 66.7 µM. The TGI in [7] is greater than 64 µM; in experiment [8], greater than 100 µM; in [10] it was greater than 95.5 µM.
As to `Cc1ccsc1/C=N/Nc1ncccn1`, the TGI in experiment [11], in experiment [1], in [3], in [4], in [5] and in [6] was greater than 100 µM each time. In addition, the TGI in experiment [7], in experiment [8], in experiment [9] and in [10] was greater than 100 µM in each case.
As for `CC(C)C1/C(=N/O)CC(c2ccccc2)N(N=O)C1c1ccccc1` (stereo not drawn), the TGI in experiment [11] is 31 µM; in [1], greater than 100 µM; in experiment [2], greater than 100 µM; in experiment [3], 45.3 µM; in experiment [4], 78.6 µM; in experiment [6], greater than 100 µM. In addition, the TGI was greater than 100 µM in [7], greater than 100 µM in experiment [8], 89.7 µM in experiment [9] and greater than 100 µM in experiment [10].
Regarding `Cc1cc(N(CCC#N)CCC#N)ccc1/C(N=Nc1ccc(Cl)cc1)=N\NC(=O)c1ccccc1`, the TGI in [11] was 94.1 µM; in experiment [1], greater than 100 µM; in experiment [2], 48.1 µM; in [3], greater than 100 µM; in experiment [5] it was 58.5 µM; in experiment [6] it was greater than 100 µM. Further, the TGI in [7] is greater than 100 µM; in experiment [8], 55 µM; in experiment [9] it was greater than 100 µM; in experiment [10], greater than 100 µM.
Regarding `O=C(O)CN(CC(=O)O)C1CCCCC1N(CC(=O)O)CC(=O)NCCN=C=S` (stereo not drawn), the TGI in experiment [1], in experiment [2], in [3], in [4], in experiment [5] and in [6] was greater than 100 µM throughout. For the same molecule, the TGI in experiment [7], in [8], in experiment [9] and in experiment [10] was greater than 100 µM in each case.
For the molecule `FC(F)(F)c1cc(Cl)cnc1N/N=C(/c1ccccc1)c1ccccn1`, the TGI is greater than 100 µM in experiment [11]; 5.04 µM in [1]; 8.31 µM in [2]; 13.2 µM in [3]; 16.3 µM in experiment [4]; 5.59 µM in [6]. Further, the TGI in experiment [7] was 17 µM; in experiment [8], 5.98 µM; in experiment [9], 22.7 µM; in experiment [10], 5.06 µM.
